Laboratory results taken from ChEMBL document CHEMBL1671689, “Activity of ceftaroline against recent emerging serotypes of Streptococcus pneumoniae in the United States” (2010).

Legend:
Format in all cases: functional
[1] = system: Streptococcus pneumoniae; experiment: Antimicrobial activity against Streptococcus pneumoniae serotype 19A by broth microdilution method
[2] = system: Streptococcus pneumoniae; experiment: Antimicrobial activity against Streptococcus pneumoniae serotype 3 by broth microdilution method
[3] = system: Streptococcus pneumoniae; experiment: Antimicrobial activity against Streptococcus pneumoniae serotype 35B by broth microdilution method
[4] = system: Streptococcus pneumoniae; experiment: Antimicrobial activity against Streptococcus pneumoniae serotype 7F by broth microdilution method
[5] = system: Streptococcus pneumoniae; experiment: Antimicrobial activity against Streptococcus pneumoniae serotype 11A by broth microdilution method
[6] = system: Streptococcus pneumoniae; experiment: Antimicrobial activity against Streptococcus pneumoniae serotype 6C by broth microdilution method
[7] = system: Streptococcus pneumoniae; experiment: Antimicrobial activity against multiple drug resistant Streptococcus pneumoniae serotype 19A by broth microdilution method
[8] = system: Streptococcus pneumoniae; experiment: Antimicrobial activity against multiple drug resistant Streptococcus pneumoniae serotype 19F by broth microdilution method
[9] = system: Streptococcus pneumoniae; experiment: Antimicrobial activity against multiple drug resistant Streptococcus pneumoniae serotype 6B by broth microdilution method
[10] = system: Streptococcus pneumoniae; experiment: Antimicrobial activity against Streptococcus pneumoniae serotype 19A assessed as percent susceptible isolates by broth microdilution method
[11] = system: Streptococcus pneumoniae; experiment: Antimicrobial activity against Streptococcus pneumoniae serotype 3 assessed as percent susceptible isolates by broth microdilution method
[12] = system: Streptococcus pneumoniae; experiment: Antimicrobial activity against Streptococcus pneumoniae serotype 35B assessed as percent susceptible isolates by broth microdilution method
[13] = system: Streptococcus pneumoniae; experiment: Antimicrobial activity against Streptococcus pneumoniae serotype 7F assessed as percent susceptible isolates by broth microdilution method
[14] = system: Streptococcus pneumoniae; experiment: Antimicrobial activity against Streptococcus pneumoniae serotype 11A assessed as percent susceptible isolates by broth microdilution method
[15] = system: Streptococcus pneumoniae; experiment: Antimicrobial activity against Streptococcus pneumoniae serotype 6C assessed as percent susceptible isolates by broth microdilution method
[16] = system: Streptococcus pneumoniae; experiment: Antimicrobial activity against multiple drug resistant Streptococcus pneumoniae serotype 19A assessed as percent susceptible isolates by broth microdilution method
[17] = system: Streptococcus pneumoniae; experiment: Antimicrobial activity against multiple drug resistant Streptococcus pneumoniae serotype 19F assessed as percent susceptible isolates by broth microdilution method
[18] = system: Streptococcus pneumoniae; experiment: Antimicrobial activity against multiple drug resistant Streptococcus pneumoniae serotype 6B assessed as percent susceptible isolates by broth microdilution method
[19] = system: Streptococcus pneumoniae; experiment: Antimicrobial activity against Streptococcus pneumoniae serotype 15A assessed as percent susceptible isolates by broth microdilution method
[20] = system: Streptococcus pneumoniae; experiment: Antimicrobial activity against Streptococcus pneumoniae serotype 22F assessed as percent susceptible isolates by broth microdilution method
[21] = system: Streptococcus pneumoniae; experiment: Antimicrobial activity against Streptococcus pneumoniae serotype 23B assessed as percent susceptible isolates by broth microdilution method
[22] = system: Streptococcus pneumoniae; experiment: Antimicrobial activity against Streptococcus pneumoniae serotype 19F assessed as percent susceptible isolates by broth microdilution method
[23] = system: Streptococcus pneumoniae; experiment: Antimicrobial activity against Streptococcus pneumoniae serotype 23A assessed as percent susceptible isolates by broth microdilution method

CCO/N=C(\C(=O)N[C@@H]1C(=O)N2C(C(=O)[O-])=C(Sc3nc(-c4cc[n+](C)cc4)cs3)CS[C@H]12)c1nsc(NP(=O)(O)O)n1 [CEFTAROLINE FOSAMIL]
0.015 µg/mL: MIC90 [4] | MIC50 [6]
0.06 µg/mL: MIC50 [5] | MIC90 [5] | MIC90 [6]
0.25 µg/mL: MIC90 [1] | MIC50 [7] | MIC90 [7] | MIC50 [8] | MIC90 [8] | MIC50 [9] | MIC90 [9]
0.12 µg/mL: MIC50 [1] | MIC50 [3] | MIC90 [3]
≤ 0.008 µg/mL: MIC [2] | MIC50 [2] | MIC90 [2] | MIC [4] | MIC50 [4]

CO/N=C(\C(=O)N[C@@H]1C(=O)N2C(C(=O)O)=C(CSc3nc(=O)c(O)nn3C)CS[C@H]12)c1csc(N)n1 [CEFTRIAXONE]
4 µg/mL: MIC90 [7] | MIC90 [8] | MIC90 [9]
65.5%: Activity [22]
100%: Activity [11] | Activity [15] | Activity [19] | Activity [20] | Activity [23]
43.9%: Activity [16] | Activity [17] | Activity [18]
98%: Activity [14]
97%: Activity [21]
1 µg/mL: MIC50 [1] | MIC50 [3] | MIC90 [3]
≤ 0.25 µg/mL: MIC [2] | MIC50 [2] | MIC90 [2] | MIC [4] | MIC50 [4] | MIC90 [4] | MIC [5] | MIC50 [5] | MIC90 [5]
0.25 µg/mL: MIC50 [6] | MIC90 [6]
98.3%: Activity [12] | Activity [13]
65.6%: Activity [10]
2 µg/mL: MIC90 [1] | MIC50 [7] | MIC50 [8] | MIC50 [9]

CO/N=C(\C(=O)N[C@@H]1C(=O)N2C(C(=O)O)=C(COC(N)=O)CS[C@H]12)c1ccco1 [CEFUROXIME]
2 µg/mL: MIC50 [6]
47.5%: Activity [15]
9.6%: Activity [12] | Activity [13]
95.2%: Activity [14]
36.1%: Activity [10]
8 µg/mL: MIC50 [1] | MIC50 [7] | MIC50 [8] | MIC50 [9]
≤ 1 µg/mL: MIC [2] | MIC50 [2] | MIC90 [2] | MIC [4] | MIC50 [4] | MIC90 [4] | MIC [5] | MIC50 [5] | MIC90 [5]
96.8%: Activity [21]
> 8 µg/mL: MIC90 [1] | MIC90 [8] | MIC90 [9]
91.4%: Activity [19]
100%: Activity [11] | Activity [20]
0%: Activity [16] | Activity [17] | Activity [18]
20.7%: Activity [22]
96.4%: Activity [23]
4 µg/mL: MIC50 [3] | MIC90 [3] | MIC90 [6]

CCC[C@@H]1C[C@@H](C(=O)N[C@@H]([C@H]2O[C@H](SC)[C@H](O)[C@@H](O)[C@H]2O)[C@H](C)Cl)N(C)C1 [CLINDAMYCIN]
97.7%: Activity [15]
43.4%: Activity [10]
0%: Activity [16] | Activity [17] | Activity [18]
> 2 µg/mL: MIC50 [1] | MIC90 [1] | MIC50 [8] | MIC90 [8] | MIC50 [9] | MIC90 [9]
100%: Activity [12] | Activity [13] | Activity [20] | Activity [21]
> 1 µg/mL: MIC [7]
96.3%: Activity [11]
≤ 0.25 µg/mL: MIC50 [2] | MIC90 [2] | MIC [3] | MIC50 [3] | MIC90 [3] | MIC [4] | MIC50 [4] | MIC90 [4] | MIC50 [5] | MIC90 [5] | MIC50 [6] | MIC90 [6]
31%: Activity [22]
95.9%: Activity [14]
81.8%: Activity [23]
10.5%: Activity [19]

CC[C@H]1OC(=O)[C@H](C)[C@@H](O[C@H]2C[C@@](C)(OC)[C@@H](O)[C@H](C)O2)[C@H](C)[C@@H](O[C@@H]2O[C@H](C)C[C@H](N(C)C)[C@H]2O)[C@](C)(O)C[C@@H](C)C(=O)[C@H](C)[C@@H](O)[C@]1(C)O [ERYTHROMYCIN]
78.8%: Activity [23]
75.5%: Activity [14]
≤ 0.25 µg/mL: MIC50 [2] | MIC90 [2] | MIC50 [3] | MIC [4] | MIC50 [4] | MIC90 [4] | MIC50 [5]
0%: Activity [16] | Activity [17] | Activity [18]
41.9%: Activity [15]
75.8%: Activity [21]
5.3%: Activity [19]
17.2%: Activity [22]
26.5%: Activity [10]
> 2 µg/mL: MIC50 [1] | MIC90 [1] | MIC90 [3] | MIC90 [5] | MIC50 [6] | MIC90 [6]
64.4%: Activity [12] | Activity [13]
> 8 µg/mL: MIC [7] | MIC50 [7] | MIC90 [7] | MIC [8] | MIC50 [8] | MIC90 [8] | MIC [9] | MIC50 [9] | MIC90 [9]
88.6%: Activity [20]
95.1%: Activity [11]

C[C@@H](O)[C@H]1C(=O)N2C(C(=O)O)=C(SCCNC=N)C[C@H]12 [IMIPENEM ANHYDROUS]
40.2%: Activity [10]
0.8%: Activity [16] | Activity [17] | Activity [18]
20.7%: Activity [22]
95.9%: Activity [14]
100%: Activity [11] | Activity [19] | Activity [20] | Activity [21] | Activity [23]
90.7%: Activity [15]
≤ 0.12 µg/mL: MIC [2] | MIC50 [2] | MIC90 [2] | MIC [4] | MIC50 [4] | MIC90 [4] | MIC [5] | MIC50 [5] | MIC90 [5] | MIC [6] | MIC50 [6] | MIC90 [6]
15.3%: Activity [12] | Activity [13]
0.5 µg/mL: MIC50 [1] | MIC90 [3]
1 µg/mL: MIC90 [1] | MIC50 [7] | MIC90 [7] | MIC50 [8] | MIC90 [8] | MIC50 [9] | MIC90 [9]
0.25 µg/mL: MIC50 [3]

CC(=O)NC[C@H]1CN(c2ccc(N3CCOCC3)c(F)c2)C(=O)O1 [LINEZOLID]
100%: Activity [10] | Activity [11] | Activity [12] | Activity [13] | Activity [14] | Activity [15] | Activity [19] | Activity [20] | Activity [21] | Activity [22] | Activity [23]
0.5 µg/mL: MIC50 [1] | MIC50 [2] | MIC50 [4] | MIC50 [7] | MIC50 [8] | MIC50 [9]
1 µg/mL: MIC90 [1] | MIC90 [2] | MIC50 [3] | MIC90 [3] | MIC90 [4] | MIC50 [5] | MIC90 [5] | MIC50 [6] | MIC90 [6] | MIC90 [7] | MIC90 [8] | MIC90 [9]

COc1c(N2C[C@@H]3CCCN[C@@H]3C2)c(F)cc2c(=O)c(C(=O)O)cn(C3CC3)c12 [MOXIFLOXACIN]
100%: Activity [10] | Activity [11] | Activity [12] | Activity [13] | Activity [14] | Activity [15] | Activity [19] | Activity [20] | Activity [23]
97%: Activity [21]
96.6%: Activity [22]
≤ 0.5 µg/mL: MIC [1] | MIC50 [1] | MIC90 [1] | MIC [2] | MIC50 [2] | MIC90 [2] | MIC [3] | MIC50 [3] | MIC90 [3] | MIC [4] | MIC50 [4] | MIC90 [4] | MIC [5] | MIC50 [5] | MIC90 [5] | MIC [6] | MIC50 [6] | MIC90 [6]
99.2%: Activity [16] | Activity [17] | Activity [18]
